According to US20190281828A1 (priority 2016, published 2019):

Key:
[1] = test system: Pyricularia oryzae; assay type: cell-based; conditions: inhibition of spore germination and mycelium growth, liquid culture, 4 to 7 days incubation
[2] = test system: Septoria tritici; assay: In vitro test for ED50 values, liquid culture, Septoria tritici; assay type: cell-based; conditions: inhibition of spore germination and mycelium growth, 4 to 7 days incubation
From the text: (§1) Example E: In Vitro Test for the Calculation of ED50-Values; Comparison of Compounds According to the Invention Vs. Compounds Encompassed by WO 2010/146116 A1
(§2) • Solvent: DMSO • Culture medium: 14.6 g anhydrous D-glucose (VWR), 7.1 g Mycological Peptone (Oxoid), 1.4 g granulated Yeast Extract (Merck) per 1 liter water • Inoculum: spore suspension
(§3) Fungicides were solubilized in DMSO and the resulting solutions used to prepare test solutions of different fungicide concentrations in the required range. The final concentration of DMSO used in the assay was <1% by volume.
(§4) A spore suspension was prepared and diluted to the desired spore density.
(§5) Fungicides were evaluated for their ability to inhibit spore germination and mycelium growth in liquid culture assay. The compounds were added in the desired concentration to the culture medium with spores. After 4 to 7 days incubation, fungi-toxicity of compounds was determined by spectrometric measurement of mycelium growth. Inhibition of fungal growth was determined by comparing the absorbance values in wells containing the fungicides with the absorbance in control wells without fungicides.

[3] = test system: Botrytis cinerea; assay: In vitro test for ED50 values, liquid culture, Botrytis cinerea; assay type: cell-based; conditions: inhibition of spore germination and mycelium growth, 4 to 7 days incubation
From the text: as §1, §2, §3, §4, §5

[4] = test system: Puccinia recondita; conditions: 500 ppm of active ingredient; preventive spray on young wheat plants; evaluated 11 days after inoculation
Description: Example A: In Vivo Preventive Test on Puccinia recondita (Brown Rust on Wheat)
(§6) • Solvent: 5% by volume of Dimethyl sulfoxide • 10% by volume of Acetone • Emulsifier: 1 μl of Tween® 80 per mg of active ingredient
(§7) The active ingredients are made soluble and homogenized in a mixture of Dimethyl sulfoxide/Acetone/Tween® 80 and then diluted in water to the desired concentration.
(§8) Control plants are treated only with an aqueous solution of Acetone/Dimethyl sulfoxide/Tween® 80.
After 24 hours, the plants are contaminated by spraying the leaves with an aqueous suspension of Puccinia recondita spores. The contaminated wheat plants are incubated for 24 hours at 20° C. and at 100% relative humidity and then for 10 days at 20° C. and at 70-80% relative humidity.
(§9) The test is evaluated 11 days after the inoculation.

[5] = test system: Alternaria alternata; assay: In vitro test for ED50 values, liquid culture, Alternaria alternata; assay type: cell-based; conditions: inhibition of spore germination and mycelium growth, 4 to 7 days incubation
From the text: as §1, §2, §3, §4, §5

[6] = test system: Uromyces appendiculatus; conditions: 500 ppm of active ingredient; preventive spray on young bean plants; evaluated 11 days after inoculation
Description: as §6, §7, §8
After 24 hours, the plants are contaminated by spraying the leaves with an aqueous suspension of Uromyces appendiculatus spores. The contaminated bean plants are incubated for 24 hours at 20° C. and at 100% relative humidity and then for 10 days at 20° C. and at 70-80% relative humidity.
as §9

[7] = physchem; conditions: reversed phase HPLC column
From the text: Calibration was done with straight-chain alkan2-ones (with 3 to 16 carbon atoms) with known Log P values (measurement of Log P values using retention times with linear interpolation between successive alkanones).

[8] = test system: Sphaerotheca fuliginea; conditions: 500 ppm of active ingredient; preventive spray on young gherkin plants; evaluated 15 days after inoculation
Description: Example C: In Vivo Preventive Test on Sphaerotheca fuliginea (Powdery Mildew on Cucurbits)
as §6, §7, §8
After 24 hours, the plants are contaminated by spraying the leaves with an aqueous suspension of Sphaerotheca fuliginea spores. The contaminated gherkin plants are incubated for 72 hours at 18° C. and at 100% relative humidity and then for 12 days at 20° C. and at 70-80% relative humidity.
The test is evaluated 15 days after the inoculation.

[9] = test system: Septoria tritici; conditions: 500 ppm of active ingredient; preventive spray on young wheat plants; evaluated 24 days after inoculation
Description: as §6, §7, §8
After 24 hours, the plants are contaminated by spraying the leaves with an aqueous suspension of Septoria tritici spores. The contaminated wheat plants are incubated for 72 hours at 18° C. and at 100% relative humidity and then for 21 days at 20° C. and at 90% relative humidity.
The test is evaluated 24 days after the inoculation.

SMILES | Pyricularia oryzae ED50 value in ppm [1] [ppm] | Septoria tritici ED50 value in ppm [2] [ppm] | Botrytis cinerea ED50 value in ppm [3] [ppm] | efficacy [4] | Alternaria alternata ED50 value in ppm [5] [ppm] | efficacy [6] | chromatographic logP [7] | efficacy [8] | efficacy [9]
CC1COC(Cn2cncn2)(c2ccc(Oc3ccc(Cl)cc3)nc2Cl)O1 (stereo not drawn) [I.02] | 1.2 | 0.008 | 2.7 | – | – | – | – | – | –
Clc1ccc(Oc2ccc(C3(Cn4cncn4)OCCO3)c(Cl)n2)cc1 [I.01, 2-chloro-6-(4-chlorophenoxy)-3-[2-(1,2,4-triazol-1-ylmethyl)-1,3-dioxolan-2-yl]pyridine] | 0.56 | – | – | at least 70% | 0.12 | at least 70% | 2.86 | at least 70% | at least 70%
Clc1ccc(Oc2cc(Cl)c(C3(Cn4cncn4)OCCO3)cn2)cc1 [reference compound] | 1.3 | – | – | – | 0.5 | – | – | – | –
CC1COC(Cn2cncn2)(c2cnc(Oc3ccc(Cl)cc3)cc2Cl)O1 (stereo not drawn) [reference compound] | 9.5 | 0.013 | 8.9 | – | – | – | – | – | –
